Assay results reported in PMC5430895 (Scientific Reports, 2017).

Experiments:
hOCTN1 [1] = target: T1, hOCTN1 (Homo sapiens, UniProt Q9H015); experiment: Saracatinib uptake in hOCTN1-overexpressing HEK293 cells (HPLC-UV)
T1 sequence (Q9H015 1-551): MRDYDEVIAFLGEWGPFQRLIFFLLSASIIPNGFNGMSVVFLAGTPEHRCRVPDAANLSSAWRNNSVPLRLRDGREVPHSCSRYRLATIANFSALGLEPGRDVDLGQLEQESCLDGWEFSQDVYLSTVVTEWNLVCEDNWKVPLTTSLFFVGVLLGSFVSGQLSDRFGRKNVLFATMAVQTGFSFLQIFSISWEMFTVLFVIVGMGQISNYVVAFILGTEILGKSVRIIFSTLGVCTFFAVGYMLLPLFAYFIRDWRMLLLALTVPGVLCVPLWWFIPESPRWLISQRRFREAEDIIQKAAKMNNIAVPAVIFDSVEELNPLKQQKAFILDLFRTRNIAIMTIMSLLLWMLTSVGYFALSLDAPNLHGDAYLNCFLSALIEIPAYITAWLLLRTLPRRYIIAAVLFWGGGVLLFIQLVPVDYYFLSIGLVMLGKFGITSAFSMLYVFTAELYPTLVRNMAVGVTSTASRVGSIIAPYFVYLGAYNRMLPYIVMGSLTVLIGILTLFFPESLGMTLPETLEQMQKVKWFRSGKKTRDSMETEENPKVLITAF
Method: Twenty-four hours before starting experiments hOCTN1 expression was induced by 1 mg/l doxycycline (Sigma-Aldrich, Steinheim, Germany). Cells were grown at standard conditions. […] Cell number was evaluated with a CASEYTT cell counter (Roche Innovatis, Reutlingen, Germany).
(§1) After incubation, cells were washed with ice-cold PBS and hypoosmotic lysis was induced with 0.1% formic acid. […] The mobile phase consisted of (A) acetonitrile with 0.1% formic acid and (B) 0.1% formic acid and was delivered at 0.3 ml/min in a gradient program. After delivering 100% B for 3 min, a linear gradient to 100% A was applied within 7 min and maintained for 5 min. Thereafter, in order to re-equilibrate the column, a simple isocratic elution step with 100% eluent B was applied for at least 6 min. […] Separation was carried out on an Accucore C18 column equipped with a C18 guard column. The data were acquired by ChromQuest 5.0 chromatography software.

hOCT2 = target: T2, hOCT2 (Homo sapiens, UniProt O15244); experiment: Saracatinib uptake in hOCT2-overexpressing HEK293 cells (HPLC-UV); conditions: hOCT2-HEK293, 10 µM saracatinib, 10 min, difference of accumulation at 4 °C and 37 °C
T2 sequence (O15244 1-555): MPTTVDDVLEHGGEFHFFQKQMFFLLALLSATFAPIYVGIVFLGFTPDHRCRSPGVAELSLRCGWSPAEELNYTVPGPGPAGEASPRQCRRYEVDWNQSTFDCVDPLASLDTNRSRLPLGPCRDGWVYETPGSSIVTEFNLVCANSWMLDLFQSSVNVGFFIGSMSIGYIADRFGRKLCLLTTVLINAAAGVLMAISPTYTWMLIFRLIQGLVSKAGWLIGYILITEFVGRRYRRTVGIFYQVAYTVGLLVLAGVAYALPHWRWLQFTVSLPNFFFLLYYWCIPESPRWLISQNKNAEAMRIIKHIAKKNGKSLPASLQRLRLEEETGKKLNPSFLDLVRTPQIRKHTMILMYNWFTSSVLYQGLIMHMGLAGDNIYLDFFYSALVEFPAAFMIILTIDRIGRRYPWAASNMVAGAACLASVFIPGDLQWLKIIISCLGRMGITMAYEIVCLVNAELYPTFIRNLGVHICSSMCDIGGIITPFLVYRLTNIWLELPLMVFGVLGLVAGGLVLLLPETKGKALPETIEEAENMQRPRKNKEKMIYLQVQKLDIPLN

WT-HEK293 cells = experiment: Saracatinib uptake in WT-HEK293 cells (HPLC-UV); conditions: WT-HEK293, 10 µM saracatinib, 10 min
RASF = experiment: Saracatinib uptake in human RA synovial fibroblasts (HPLC-UV)
Method: The kinetic parameters Km and V max values were estimated by least-square nonlinear regression analysis using GraphPadPrism 5 software.
Unpaired student t-test was used for statistical analysis.
Cells were grown at standard conditions. Synovial fibroblasts (SF) were isolated from tissues of patients with rheumatoid arthritis (RA) (n = 8) obtained during joint replacement surgery after written informed consent was obtained. This procedure was approved by the Ethics Committee of the University of Münster, Germany; all methods were performed in accordance with the relevant guidelines and regulations. […] RA patients met the American College of Rheumatology criteria. Isolated fibroblasts were cultured under standard conditions for a maximum of eight passages. When indicated, RASF were incubated with 10 ng/ml TNFα (PeproTech, Hamburg, Germany). Cell number was evaluated with a CASEYTT cell counter (Roche Innovatis, Reutlingen, Germany).
as §1

hOCTN1 [2] = target: T1, hOCTN1; experiment: Saracatinib uptake in RASF after hOCTN1 siRNA knockdown; assay type: in vitro ADME; parameters: expressed in transfected cells; host or cells: HEK293, expression induced with 1 mg/l doxycycline; conditions: RASF 24 h post-transfection with hOCTN1 siRNA
hOCTN2 = target: T3, hOCTN2 (Homo sapiens, UniProt O76082); experiment: Saracatinib uptake in hOCTN2-expressing HEK293 cells (HPLC-UV); conditions: hOCTN2-HEK293, 10 µM saracatinib, 10 min; not significantly different from WT
T3 sequence (O76082 1-557): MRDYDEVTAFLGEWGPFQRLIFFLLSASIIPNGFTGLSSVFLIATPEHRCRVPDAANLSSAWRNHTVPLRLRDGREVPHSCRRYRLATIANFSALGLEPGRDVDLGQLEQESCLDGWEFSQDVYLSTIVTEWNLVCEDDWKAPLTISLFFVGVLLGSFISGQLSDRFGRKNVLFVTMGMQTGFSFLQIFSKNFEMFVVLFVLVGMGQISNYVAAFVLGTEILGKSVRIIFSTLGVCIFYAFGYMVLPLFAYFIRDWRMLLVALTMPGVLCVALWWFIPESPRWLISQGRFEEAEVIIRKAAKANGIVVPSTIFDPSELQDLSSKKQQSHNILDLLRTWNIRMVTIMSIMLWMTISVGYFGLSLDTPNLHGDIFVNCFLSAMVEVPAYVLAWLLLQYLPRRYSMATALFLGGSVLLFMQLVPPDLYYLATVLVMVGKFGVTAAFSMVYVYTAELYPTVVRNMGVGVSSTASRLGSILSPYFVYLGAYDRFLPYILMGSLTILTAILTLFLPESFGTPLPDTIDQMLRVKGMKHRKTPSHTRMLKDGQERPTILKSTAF

hOCT3 = target: T4, hOCT3 (Homo sapiens, UniProt O75751); experiment: Saracatinib uptake in hOCT3-overexpressing HEK293 cells (HPLC-UV); conditions: hOCT3-HEK293, 10 µM saracatinib, 10 min, difference of accumulation at 4 °C and 37 °C
T4 sequence (O75751 1-556): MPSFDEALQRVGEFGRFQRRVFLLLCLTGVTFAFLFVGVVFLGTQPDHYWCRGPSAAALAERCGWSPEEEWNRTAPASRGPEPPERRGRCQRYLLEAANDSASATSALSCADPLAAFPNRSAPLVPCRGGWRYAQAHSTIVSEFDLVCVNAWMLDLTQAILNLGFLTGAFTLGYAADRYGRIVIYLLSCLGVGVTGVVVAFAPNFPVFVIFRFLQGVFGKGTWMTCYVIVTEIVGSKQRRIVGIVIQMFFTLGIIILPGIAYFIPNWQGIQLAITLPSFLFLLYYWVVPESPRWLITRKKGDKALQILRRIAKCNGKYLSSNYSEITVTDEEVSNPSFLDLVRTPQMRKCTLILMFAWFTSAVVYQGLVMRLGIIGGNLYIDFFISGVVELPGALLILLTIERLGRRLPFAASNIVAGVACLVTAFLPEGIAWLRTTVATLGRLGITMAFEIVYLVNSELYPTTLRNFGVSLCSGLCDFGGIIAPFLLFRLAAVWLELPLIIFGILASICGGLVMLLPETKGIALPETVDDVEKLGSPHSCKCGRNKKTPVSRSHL

saracatinib accumulation (specific uptake) (hOCTN1 [1]; hOCTN1-HEK293, 10 µM saracatinib, 10 min, difference of accumulation at 4 °C and 37 °C): 9.3 ± 1.6 nmol/mg protein
influence of extracellular pH on saracatinib uptake (hOCTN1 [1]; hOCTN1-HEK293 cells): pH dependent
time for which hOCTN1 mediated saracatinib accumulation is linear (hOCTN1 [1]; hOCTN1-HEK293 cells, 10 µM saracatinib): at least 15 min
maximum saracatinib uptake (Vmax) (hOCTN1 [1]; hOCTN1-HEK293 cells, 10 min incubation): 79.7 ± 5.2 nmol/mg protein
saracatinib accumulation (specific uptake) (hOCT2): 7.0 ± 0.5 nmol/mg protein
saracatinib accumulation (specific uptake) (WT-HEK293 cells): 1.8 ± 0.5 nmol/mg protein
influence of extracellular pH on saracatinib uptake (RASF; RASF): pH-dependent
Km (RASF; read-out: Km of saracatinib uptake, RASF, 10 min incubation): 39.4 ± 9.4 µM
uptake of saracatinib (hOCTN1 [2]): 2.6 ± 0.8 nmol/mg protein
uptake of saracatinib, % remaining versus scramble siRNA (hOCTN1 [2]): 26%
saracatinib accumulation (specific uptake) (hOCTN2): 3.8 ± 1.7 nmol/mg protein
saracatinib accumulation (specific uptake) (hOCT3): 5.7 ± 0.1 nmol/mg protein
Compound: CN1CCN(CCOc2cc(OC3CCOCC3)c3c(Nc4c(Cl)ccc5c4OCO5)ncnc3c2)CC1 [saracatinib, N-(5-chloro-1,3-benzodioxol-4-yl)-7-[2-(4-methylpiperazin-1-yl)ethoxy]-5-(tetrahydro-2H-pyran-4-yloxy)quinazolin-4-amine]
increase of saracatinib uptake versus untreated controls (RASF; RASF treated for 18 h with TNFα (10 ng/ml)): 36 ± 5%
saracatinib transport capacity (Vmax) (RASF; RASF, 10 min incubation): 71.6 ± 4.1 nmol/mg protein/10 min
